# Laboratory results from patent publication US11504385B2, “Proteolysis targeting chimeric molecule, preparation method, and application” (CHINA PHARMACEUTICAL UNIVERSITY, priority 2019, dated 2022).
# Key:
# Assay type in all cases: cell-based
# BCR-ABL fusion protein = molecular target: T1, BCR-ABL fusion protein (Homo sapiens, UniProt P00519+P11274+Q96SW2, E27K); assay: Immunoblotting, degradation of BCR-ABL protein in K562 cells
# T1 construct: By using BCR-ABL and CRBN positive K562 cell lines; endogenous in cells; host or cells: K562
# Procedure: Initially, researchers synthesized a 2C compound (FIG. 2A), which is a small molecule with the shortest joining chain (n=1). By using BCR-ABL and CRBN positive K562 cell lines, degradation of ABL and BCR-ABL proteins in the cells under the action of the compound was tested by immunoblotting. […] Then, the researchers tried to extend the joining chain (increasing the value of n).
# (§1) In order to test the degradation effect of the compound 4C on c-ABL and BCR-ABL proteins in K562 cells, the researchers performed an immunoblotting experiment. […] In order to exclude the possibility that the compound 4C affected the ABL gene to generate false positive expression, the researchers used RT-qPCR in K562 cells to study the expression of the ABL gene.
# The operation method of the immunoblotting experiment is as follows: […]
# The medium was aspirated from the culture; the cells were washed with 1*PBS; and the cells were aspirated.
# A weak RIPA lysate (100 μL) was added to lyse the cells for 40 min.
# The sample was centrifuged at 13000 rpm, 4° C. for 15 min; 80 μl of supernatant was taken and added to 20 μl of loading buffer; the reaction solution was heated at 100° C. for 8 minutes; and the sample was placed on ice and cooled.
# […] of sample was loaded on 10% SDS-PAGE gel. The sample was transferred to a PVDF membrane by a wet process.
# A membrane was placed in 25 ml of blocking buffer and blocked at room temperature for 1 hour.
# The membrane and the primary antibody (according to the appropriate dilution and diluent recommended in the product description) were placed in 10 ml of primary antibody dilution buffer, and incubated overnight at 4° C. and gently shaken from time to time.
# Anti-rabbit IgG, HRP-linked Antibody (#7074, in a ratio of 1:2000) and anti-biotin, HRP-linked Antibody (#7075, in a ratio of 1:1000-1:3000) are diluted with 10 ml of blocking buffer to detect biotinylated protein standards. The membrane was incubated with the diluent, and gently shaken and incubated at room temperature for 1 hour.
# A developer solution and the membrane were incubated together for 1 minute, the excess solution was discarded (the membrane remained moist) and the membrane was exposed.
# Next, we tested the difference in the activity of different configurations of compound 4C in degradation of ABL and BCR-ABL proteins. […] The operation method of the immunoblotting experiment is the same as above.
# K562 cell line = assay: Cell viability test (CellTiter-Glo), K562
# Procedure: (§2) The operation method of the K562 cell viability test is as follows:
# (§3) 50 μL of K562, MCF-7, HCT116 and A549 cell suspensions were added to a 96-well plate and incubated for 12 hours. 10 μL of compound was added to the well and incubated for 48 hours. Operation was performed according to a CellTiter-Glo® luminescent cell viability assay kit (Promega). Nonlinear regression analysis data in GraphPad Prism 6 was used.
# HCT116 = assay: Cell viability test (CellTiter-Glo), HCT116; conditions: HCT116, non-BCR-ABL dependent tumor cell line
# Procedure: as §2, §3
# MCF-7 breast cancer = assay: Cell viability test (CellTiter-Glo), MCF-7; conditions: non-BCR-ABL dependent tumor cell line
# Procedure: as §2, §3
# ABL gene = assay: RT-qPCR, expression of the ABL gene in K562 cells
# Text: as §1
# The operation method of an RT-qPCR experiment is as follows:
# According to the related gene information in the NCBI database, the coding sequences were selected, and primers were designed and synthesized by GenScript Biotechnology Corporation under entrustment. The sequences are as follows:
# A K562 cell resuspension solution collected in a 1.5 mL centrifuge tube was centrifuged briefly. […] After mixing uniformly, the purity and concentration of the extracted RNA sample were detected using a spectrophotometer. […]
# 0.2 ml thin-walled PCR tubes were taken and numbered respectively. […] Water was added to each tube to 25 μl and mixed uniformly, and the mixed solutions were placed in an SLAN fluorescent quantitative PCR instrument. After pre-denaturation at 95° C. for 5 min, the mixed solutions were placed at 95° C. for 15 s→65° C. for 35 s (fluorescence detection), for 40 cycles.
# K562 cells = assay: Time-effect experiment, apoptosis of K562 cells; conditions: 250 nM, after 48 hours
smiles,measurement,setting,value
"Cc1nc(Nc2ncc(C(=O)Nc3c(C)cccc3Cl)s2)cc(N2CCN(CCCCOc3ccc(/N=N/c4ccc(C(=O)Nc5cccc6c5CN(C5CCC(=O)NC5=O)C6=O)cc4)cc3)CC2)n1 (stereo not shown) [Compound 4C, (E)-N-(2-chloro-6-methylphenyl)-2-((6-(4-(4-(4-((4-((2-(2,6-dioxopiperidin-3-yl)-1-oxoisoindolin-4-yl)carbamoyl)phenyl)diazenyl)phenoxy)butyl)piperazin-1-yl)-2-methylpyrimidin-4-yl)amino)thiazole-5-carboxamide]",inhibition of expression of BCR-ABL and/or CRBN protein,"BCR-ABL fusion protein; BCR-ABL and/or CRBN positive leukemia K562 cells, to varying degrees",can inhibit the expression
same,"activity in degrading the BCR-ABL fusion protein, compared among the PROTAC molecules",BCR-ABL fusion protein; K562 cells,best activity
same,"degradation of BCR-ABL fusion protein, dose-effect","BCR-ABL fusion protein; K562 cells, 25 nM, 24 hours of incubation",slightly degrade
same,time at which BCR-ABL reached the maximum degradation,"BCR-ABL fusion protein; K562 cells, 250 nM",32 h
same,"BCR-ABL level, time-effect","BCR-ABL fusion protein; K562 cells, 250 nM, after 4 hours",slight decrease
same,"BCR-ABL level, time-effect","BCR-ABL fusion protein; K562 cells, 250 nM, after 10 hours",significantly degraded
same,"BCR-ABL level, time-effect","BCR-ABL fusion protein; K562 cells, 250 nM, after 10 hours, listed as 4C-trans",significantly reduced
same,"BCR-ABL fusion protein degraded, time-effect","BCR-ABL fusion protein; K562 cells, 250 nM, after 32 hours",more than 90%
same,"BCR-ABL degraded, dose-effect","BCR-ABL fusion protein; K562 cells, 500 nM, 24 hours of incubation",more than 80%
same,EC50,"K562 cell line; Homo sapiens, K562 cells, 48 hours, CellTiter-Glo, read-out: median effective concentration (EC50)",28 nM
same,selectivity for the BCR-ABL dependent K562 cell line,"K562 cell line; versus A549, HCT116, HEK293T, MCF-7",good selectivity
same,effect on cell viability,HCT116,hardly affects
same,effect on cell viability,MCF-7 breast cancer,hardly affects
same,"mRNA level of the ABL gene, time-effect","ABL gene; 500 nm, 48 hours",did not significantly decrease
same,"mRNA level of the ABL gene, dose-effect","ABL gene; different concentrations, 36 hours, compared with control group",did not change significantly
same,apoptosis of K562 cells,K562 cells,obvious apoptosis
